Drawing on patent US20160120848A1, “SPECIFIC CANCER TREATMENT REGIMES WITH GANETESPIB” (SYNTA PHARMACEUTICALS CORP., priority 2013, published 2016), this text covers efficacy and safety profile for one compound.

In data set [1] the test system is advanced non-small-cell lung cancer (NSCLC) of non-squamous histology. Kind of data set: Phase I study of ganetespib in combination with docetaxel in advanced NSCLC. In kind it is in vivo, patients. Conditions: ganetespib 150 mg/m^2 in combination with docetaxel (75 or 60 mg/m^2). The method, then:
In the first cohort (Cohort 1), patients with advanced solid tumor malignancies are treated with 75 mg/m^2 of ganetespib monotherapy. In the second cohort (Cohort 2), patients with advanced solid tumor malignancies are treated with 150 mg/m^2 of ganetespib monotherapy. In the third cohort (Cohort 3), patients with advanced NSCLC are treated with ganetespib (150 mg/m^2) in combination with docetaxel (75 mg/m^2). In the case of intolerability of the third cohort's combination regimen, in a fourth cohort (Cohort 4), patients with advanced NSCLC are treated with ganetespib (150 mg/m^2) in combination with docetaxel (60 mg/m^2).
Patients with advanced NSCLC, excluding patients with squamous cell histology, are administered ganetespib and docetaxel in Cohort 3.
The purpose of this cohort is to explore the PK and tolerability of ganetespib in combination with docetaxel. Patients enrolled in this cohort receive ganetespib 150 mg/m^2 in combination with docetaxel 75 mg/m^2.
On Day 1 of each 3-week treatment cycle, ganetespib and docetaxel are administered as separate 1-hour intravenous infusions. Administration of ganetespib precedes the administration of docetaxel. There is a 1-hour “rest” period following the end of the ganetespib infusion and prior to docetaxel infusion.
On Day 15, patients receive 150 mg/m^2 single-agent ganetespib administered via a 1-hour intravenous infusion. […]

Data set [2] concerns ovarian, fallopian tube or peritoneal cancer. Description: Phase I/II study of ganetespib in combination with paclitaxel. In kind it is in vivo. The settings on record: combination with weekly paclitaxel 80 mg/m^2. As for the experimental part:
A Phase I/II trial of weekly paclitaxel in combination with ganetespib in patients with recurrent, platinum-resistant ovarian, fallopian tube or primary peritoneal cancer is performed. A total of up to 74 patients (up to 18 Phase I patients and up to 56 Phase II patients) with recurrent, platinum-resistant epithelial ovarian, primary peritoneal and fallopian tube carcinoma is enrolled.
Phase I Treatment: Paclitaxel IV given over 1 hour at 80 mg/m^2 days 1, 8 and 15 of a 28-day cycle. Ganetespib IV at a starting dose of 100 mg/m^2 on days 1, 8 and 15 of a 28-day cycle. Ganetespib escalation will follow a modified 3+3 design and escalate from 100 mg/m^2 to 125 mg/m^2 to 150 mg/m^2.
Phase II treatment (after MTD): Phase II TPaclitaxel IV given over 1 hour at 80 mg/m^2 days 1, 8 and 15 of a 28-day cycle. PLUS ganetespib IV at MTD/MED from Phase I on days 1, 8 and 15 of a 28-day cycle.

`CC(C)c1cc(-c2n[nH]c(=O)n2-c2ccc3c(ccn3C)c2)c(O)cc1O` [ganetespib]: the efficacy result in data set [1] and in data set [2] was “efficacious” in each case. Also, in data set [2], the safety profile result is on record as “good safety profile”.
